{"source": "patent US11020462B2", "about": "“Methods for treatment of diseases” (SERPIN PHARMA, LLC, priority 2015, dated 2021)", "key": {"[1]": {"experiment": "SP16 pharmacokinetic profile after intravenous injection (LC/MS/MS of plasma)", "assay_type": "in vivo, rats", "method": "The following table provides the results from an assay for SP16's pharmacokinetic profile. In performing the assay, three normal rats were injected intravenously with 5 mg/kg SP16 and the plasma concentration of SP16 established at 8 time points following the injection. […] The assay was executed by Apredica, Boston, Mass."}, "healthy mouse": {"system": "healthy mouse", "experiment": "cardiac contractility in the healthy mouse (echocardiography, isoproterenol challenge)", "assay_type": "in vivo", "settings": "FIG. 7", "method": "To test the effect of SP163M on heart contractility the following study was conducted. […] SP34 is a peptide with a scrambled sequence of SP16 and is used as a control peptide.\nTen-weeks-old ICR mice were treated with SP163M (100 μg/mouse i.p.), the control peptide SP34 (100 μg/mouse) or the vehicle solution. Echocardiography was used to assess left ventricular (LV) fractional shortening at baseline and after 180 minutes.\nCardiac contractility reserve was tested with isoproterenol challenge (10 ng/kg i.p.), measuring the increase in LV fractional shortening within 5′ of treatment. Each group included at least 6 mice."}, "111 human receptors": {"system": "111 human receptors", "experiment": "human receptor panning, GenSEP Explorer panel of 111 in vitro assay targets", "settings": "111 targets", "from_the_text": "In addition, we also performed a profile using human receptor panning. The GenSEP Explorer panel contains 111 in vitro assay targets carefully selected to assess drug/chemical biological activities. Assay categories include GPCRs, Voltage-Gated Ion Channels, Ligand-Gated Ion Channels, Neurotransmitter transporters, Nuclear Receptors and Steroids as well as a diverse set of biochemical targets including phosphodiesterases, kinases and other relevant enzymes."}, "hERG": {"target": "T1, hERG (Homo sapiens, UniProt Q12809)", "T1 construct": "Apredica, Boston, Mass; (contract laboratory that ran the study)", "T1 sequence (Q12809 whole entry)": "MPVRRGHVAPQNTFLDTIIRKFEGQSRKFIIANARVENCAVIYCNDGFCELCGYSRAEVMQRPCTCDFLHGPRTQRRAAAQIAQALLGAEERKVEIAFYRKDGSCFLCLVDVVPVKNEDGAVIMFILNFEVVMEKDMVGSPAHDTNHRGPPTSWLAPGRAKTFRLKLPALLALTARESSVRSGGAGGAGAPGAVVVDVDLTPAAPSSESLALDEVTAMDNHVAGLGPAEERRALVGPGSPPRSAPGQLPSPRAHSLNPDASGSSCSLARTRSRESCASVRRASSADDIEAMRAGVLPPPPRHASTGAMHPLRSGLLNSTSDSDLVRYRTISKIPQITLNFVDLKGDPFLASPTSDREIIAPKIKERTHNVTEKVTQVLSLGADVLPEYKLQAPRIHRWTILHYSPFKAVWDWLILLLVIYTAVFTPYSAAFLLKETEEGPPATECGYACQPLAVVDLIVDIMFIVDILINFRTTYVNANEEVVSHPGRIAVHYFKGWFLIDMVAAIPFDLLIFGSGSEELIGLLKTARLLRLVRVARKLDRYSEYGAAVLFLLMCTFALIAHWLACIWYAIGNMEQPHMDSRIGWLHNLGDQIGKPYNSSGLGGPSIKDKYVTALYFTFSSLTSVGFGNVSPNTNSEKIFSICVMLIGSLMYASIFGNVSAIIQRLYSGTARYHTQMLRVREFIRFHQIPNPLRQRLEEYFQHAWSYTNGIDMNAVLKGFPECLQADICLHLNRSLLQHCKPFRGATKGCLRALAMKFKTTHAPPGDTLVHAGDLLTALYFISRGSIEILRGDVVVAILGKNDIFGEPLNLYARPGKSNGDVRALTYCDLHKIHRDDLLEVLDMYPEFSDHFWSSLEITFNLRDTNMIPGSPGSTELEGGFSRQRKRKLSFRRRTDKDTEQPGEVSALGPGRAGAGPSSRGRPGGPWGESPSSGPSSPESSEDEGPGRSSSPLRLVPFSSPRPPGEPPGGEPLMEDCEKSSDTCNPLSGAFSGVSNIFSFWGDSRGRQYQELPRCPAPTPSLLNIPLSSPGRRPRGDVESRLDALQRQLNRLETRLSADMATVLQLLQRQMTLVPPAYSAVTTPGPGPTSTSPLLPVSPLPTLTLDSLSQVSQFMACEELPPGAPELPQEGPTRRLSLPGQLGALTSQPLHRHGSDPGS", "experiment": "cell-based", "assay_type": "cell-based"}, "recombinant LRP1 protein": {"target": "T2, recombinant LRP1 protein (Homo sapiens, UniProt Q07954)", "T2 construct": "purchased R&D Systems, Minneapolis, Minn", "T2 sequence (Q07954 with tags, fused parts or gaps limits assumed, species assumed)": "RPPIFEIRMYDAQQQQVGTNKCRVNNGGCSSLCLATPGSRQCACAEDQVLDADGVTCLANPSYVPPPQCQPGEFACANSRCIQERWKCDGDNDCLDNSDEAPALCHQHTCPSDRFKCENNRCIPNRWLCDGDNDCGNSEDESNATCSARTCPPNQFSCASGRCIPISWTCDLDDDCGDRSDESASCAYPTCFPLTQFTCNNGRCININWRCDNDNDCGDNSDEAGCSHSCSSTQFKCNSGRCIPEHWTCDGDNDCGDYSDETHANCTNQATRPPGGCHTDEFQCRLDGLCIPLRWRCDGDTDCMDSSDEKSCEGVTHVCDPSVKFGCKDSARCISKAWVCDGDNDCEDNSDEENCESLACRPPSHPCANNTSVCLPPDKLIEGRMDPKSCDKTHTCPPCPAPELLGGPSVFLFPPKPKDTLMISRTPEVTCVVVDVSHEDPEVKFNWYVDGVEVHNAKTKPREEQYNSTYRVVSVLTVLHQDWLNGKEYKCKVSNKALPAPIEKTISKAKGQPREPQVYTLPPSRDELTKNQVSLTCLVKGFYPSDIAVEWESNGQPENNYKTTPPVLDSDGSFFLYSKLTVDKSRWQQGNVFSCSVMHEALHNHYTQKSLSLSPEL", "experiment": "in vitro binding of biotin-peptide to recombinant LRP1 (streptavidin bead pull-down, western blot)", "method": "An in vitro assay was performed to examine SP163M binding to LRP1. To perform the assay, recombinant LRP1 protein (1 μg/ml) (R&D Systems, Minneapolis, Minn.) was incubated on ice in the presence of biotin-SP163M (1-5 μg/ml) at 4° C. for 1 hour. This mixture was then incubated with 1 mg/ml M280 Streptavidin Dynabeads (Invitrogen, Carlsbad, Calif.) for 1.5 hours at 4° C. Dynabeads were washed in PBS+0.1% Tween20 and boiled in SDS loading buffer for 5 minutes. The supernatants were separated on NuPAGE 4-12% Bis-Tris gels (Invitrogen) and transferred to nitrocellulose membranes. The membranes were probed with anti-LRP1 (LRP-1 Cluster II Affinity Purified Polyclonal Ab, R&D, Minneapolis, Minn.) and incubated overnight at 4° C. The membranes were then washed 3 times with TBS-T and incubated with secondary HRP-coupled anti-goat diluted 1:10,000 in 5% milk TBS-T. The western blots were visualized by chemiluminescence using SuperSignal West Femto Maximum Sensitivity Substrate kit (ThermoScientific) and a Bio Rad Molecular Imager ChemiDoc XRS system (Bio-Rad, Hercules, Calif.)."}, "[2]": {"system": "inflammatory reaction that occurs after AMI", "settings": "pilot clinical study; cited from earlier work"}, "[3]": {"system": "experimental acute myocardial infarction (AMI) in the mouse", "settings": "AAT at onset of ischemia or at time of reperfusion, cited from earlier work"}, "LRP1": {"target": "T3, LRP1 (Mus musculus, UniProt Q91ZX7)", "T3 construct": "from tissue; host or cells: living CD1 mice (heart, in vivo)", "experiment": "experimental AMI in mice pretreated with LRP1 blocking antibody", "assay_type": "in vivo", "settings": "LRP1 antibody clone 5A6 3 mg/kg 16 hours before surgery; SP163M 100 μg or AAT 60 mg/kg i.p. after reperfusion, FIG. 14", "method": "To examine the whether LRP1 mediates the cardioprotective effect of SP163M, groups of mice were treated with an LRP1 blocking antibody prior to experimental AMI. The resulting infarct size and LV systolic function were measured\nAdult out-bred male CD1 mice (10 weeks of age) supplied by Harlan Sprague Dawley (Indianapolis, Ind.) were used in this study. A single operator (S.T.) skilled in coronary artery surgical ligation in mice performed all surgeries. Experimental AMI was induced by transient coronary artery ligation of the left anterior descending coronary artery for 30 minutes to induce ischemia of the anterior wall and the apex (visible as pallor) followed by reperfusion, and leading to an infarct involving approximately 15% of the left ventricle. […]\nInfarct size (reported in FIG. 14A) was measured as previously described. […] The infarcted tissue (appearing white) and the viable tissue (bright red) were measured by computer morphometry using Image Pro Plus 6.0 software (Media Cybernetics, Silver Spring, Md.). […]\nLV systolic function (reported in FIG. 14B) was determined as well. […] We measured the left ventricular (LV) end-diastolic and end-systolic areas at B-Mode and the LV end-diastolic diameter (LVEDD), LV end-systolic diameters (LVESD) at M-Mode. LV fractional shortening (FS) and LV ejection fraction (EF) were calculated. […]"}, "TNF-alpha": {"system": "TNF-alpha", "experiment": "LPS challenged mouse model of sepsis, TNF-alpha levels", "assay_type": "in vivo", "from_the_text": "Specifically, in these particular fragments, the three most N-terminal and the two most C-terminal amino acids appear to play a role in the anti-inflammatory properties of the peptides as replacement of them appeared to reduce the capacity of the peptides to reduce TNF-alpha levels in a LPS challenged mouse model of sepsis (see, e.g., PCT/US13/20498; which is incorporated by reference herein in its entirety). Accordingly, in some aspects of all embodiments of the invention the peptides are selected from SP40, SP43, SP46, and SP49 the peptide sequences of which are set forth in Table B.\nTable C below presents additional exemplary peptides that were used to reduce TNF-alpha levels in mice subjected to an LPS challenge. Also the peptides with capacity to reduce TNF-alpha levels as described in PCT/US13/20498; which is incorporated by reference herein in its entirety, are contemplated for the compositions, pharmaceutical compositions and methods of use and treatment of inflammatory conditions in the present invention."}, "[4]": {"settings": "rat, in vivo, SP16, IV (5 mg/kg), normal rats"}}, "note": "Values joined by “and” are separate entries in the source; they are usually repeats but may differ in a detail not shown here. Equal entries are not always repeated. “Also recorded” adds a separate entry of the source. Where two headings read alike, the source gives them in different places."}
{"compound": "CC[C@H](C)[C@H](NC(=O)[C@H](CCSC)NC(=O)[C@H](CC(C)C)NC(=O)[C@H](Cc1ccccc1)NC(=O)[C@@H](NC(=O)[C@H](Cc1ccccc1)NC(=O)[C@@H]1CCCN1C(=O)[C@H](CCCCN)NC(=O)[C@H](CC(N)=O)NC(=O)[C@H](Cc1ccccc1)NC(=O)[C@H](CCCCN)NC(=O)[C@@H](N)C(C)C)C(C)C)C(=O)N[C@@H](CCC(=O)O)C(=O)N[C@@H](CCC(N)=O)C(=O)N[C@@H](CC(N)=O)C(=O)N[C@H](C(=O)N[C@@H](CCCCN)C(=O)O)[C@@H](C)O", "note": "[SP16]", "values": [{"measurement": "Last Time point", "setting": "[1]; SP16, IV (5 mg/kg), normal rats", "value": 8.0}, {"measurement": "Cmax", "setting": "[1]; rat, in vivo, iv, 5 mg/kg intravenously, three normal rats", "value": 2500, "unit": "ng/mL"}, {"measurement": "half-life", "setting": "[1]; rat, in vivo, iv, 5 mg/kg intravenously, three normal rats, read-out: T1/2 (half-life) (converted)", "value": 1.9, "unit": "h"}, {"measurement": "C0", "setting": "[1]; [4]", "value": 2500, "unit": "ng/mL"}, {"measurement": "MRT inf", "setting": "[1]; [4]", "value": 1.1, "unit": "h"}, {"measurement": "AUC", "setting": "[1]; rat, in vivo, SP16, IV (5 mg/kg), normal rats, read-out: AUC to Last", "value": 900, "unit": "ng·h/mL"}, {"measurement": "clearance", "setting": "[1]; rat, in vivo, SP16, IV (5 mg/kg), normal rats, read-out: Total CL (converted)", "value": "2.33 mL/min and 9.7 mL/min/kg"}, {"measurement": "Vd", "setting": "[1]; rat, in vivo, SP16, IV (5 mg/kg), normal rats, read-out: Vss", "value": 0.149, "unit": "L"}, {"measurement": "Vd", "setting": "[1]; rat, plasma, SP16, IV (5 mg/kg), normal rats, read-out: V", "value": 0.374, "unit": "L"}, {"measurement": "heart contractility", "setting": "healthy mouse", "value": "does not affect heart contractility"}, {"measurement": "effect on the human receptor panel (in words)", "setting": "111 human receptors", "value": "not able to identify any hits; also recorded: no effect on 111 human receptors"}, {"measurement": "IC50", "setting": "hERG", "value": "> 25", "unit": "µM"}, {"measurement": "comment: concentration-dependent inhibition of hERG observed or not", "setting": "hERG; 0.008-25 μM", "value": "No concentration-dependent"}, {"measurement": "activity at 0.008 µM", "setting": "hERG; hERG, 0.008 μM", "value": 89, "unit": "%"}, {"measurement": "activity at 0.04 µM", "setting": "hERG; hERG, 0.04 μM", "value": 95, "unit": "%"}, {"measurement": "activity at 0.2 µM", "setting": "hERG; hERG, 0.2 μM", "value": 95, "unit": "%"}, {"measurement": "activity at 1 µM", "setting": "hERG; hERG, 1 μM", "value": 78, "unit": "%"}, {"measurement": "activity at 5 µM", "setting": "hERG; hERG, 5 μM", "value": 88, "unit": "%"}, {"measurement": "activity at 25 µM", "setting": "hERG; hERG, 25 μM", "value": 89, "unit": "%"}, {"measurement": "inhibition of hERG (in words)", "setting": "hERG; up to 25 μM", "value": "does not impact hERG activity; also recorded: does not inhibit hERG"}]}
{"compound": "A A A N K P F V F L M I E Q N T K (AAANKPFVFLMIEQNTK; listed as Homo sapiens) [SP37]", "values": [{"measurement": "binding to LRP1 (statement without method)", "setting": "recombinant LRP1 protein", "value": "bind LRP1"}]}
{"compound": "AAT: plasma derived alpha-1 antitrypsin (AAT) (Aralast N P, Baxter); circulating serum protein, parent of SP16", "values": [{"measurement": "safety and efficacy in blocking the inflammatory reaction after AMI", "setting": "[2]", "value": "preliminary safety and efficacy"}, {"measurement": "infarct size", "setting": "[3]; vs albumin, FIG. 3", "value": "significantly smaller infarct size; also recorded: reduces infarct size"}, {"measurement": "cardiac healing and remodeling", "setting": "[3]", "value": "more favorable cardiac healing and remodeling"}, {"measurement": "protective effects (infarct size, LV systolic function) after LRP1 blocking antibody", "setting": "LRP1", "value": "eliminates the cardioprotective effects; also recorded: eliminated the protective effects"}]}
{"compound": "V K F A A A F V F L M I E Q N T K (VKFAAAFVFLMIEQNTK; listed as Homo sapiens) [SP40]", "values": [{"measurement": "binding to LRP1 (statement without method)", "setting": "recombinant LRP1 protein", "value": "bind LRP1"}, {"measurement": "anti-inflammatory effect", "setting": "TNF-alpha", "value": "particularly good anti-inflammatory effect"}]}
{"compound": "V K F N K P A A A L M I E Q N T K (VKFNKPAAALMIEQNTK; listed as Homo sapiens) [SP43]", "values": [{"measurement": "anti-inflammatory effect", "setting": "TNF-alpha", "value": "particularly good anti-inflammatory effect"}]}
{"compound": "V K F N K P F V F A A A E Q N T K (VKFNKPFVFAAAEQNTK; listed as Homo sapiens) [SP46]", "values": [{"measurement": "anti-inflammatory effect", "setting": "TNF-alpha", "value": "particularly good anti-inflammatory effect"}]}
{"compound": "V K F N K P F V F L M I A A A T K (VKFNKPFVFLMIAAATK; listed as Homo sapiens) [SP49]", "values": [{"measurement": "anti-inflammatory effect", "setting": "TNF-alpha", "value": "particularly good anti-inflammatory effect"}]}
{"compound": "V K F N K P F V F L M I E Q A A A (VKFNKPFVFLMIEQAAA; listed as Homo sapiens) [SP51]", "values": [{"measurement": "binding to LRP1 (statement without method)", "setting": "recombinant LRP1 protein", "value": "bind LRP1"}]}
